In patent US20250188110A1, “SPECIFIC SMALL MOLECULE INHIBITORS THAT BLOCK KMT9 METHYLTRANSFERASE ACTIVITY AND FUNCTION” (ALBERT-LUDWIGS-UNIVERSITÄT FREIBURG, priority 2021, published 2025):
Read-outs that look alike come from different tables or passages of the source.

Assays:
KMT9 [1] = biological target: T1, KMT9 (Homo sapiens, UniProt Q9Y5N5); test: KMT9 methyltransferase inhibition assay, MTaseGlo luminescence (from entry 155); type: biochemical; conditions: 100 nM KMT9, 5 μM ETF1, 1 μM SAM
T1 sequence (Q9Y5N5 1-214): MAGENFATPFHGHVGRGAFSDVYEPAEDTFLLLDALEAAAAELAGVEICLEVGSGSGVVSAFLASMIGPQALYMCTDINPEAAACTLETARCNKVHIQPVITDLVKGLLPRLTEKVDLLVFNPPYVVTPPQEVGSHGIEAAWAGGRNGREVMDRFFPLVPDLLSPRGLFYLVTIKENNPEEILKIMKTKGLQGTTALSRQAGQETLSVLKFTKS
T1 sequence (Q9UI30 1-120 isoform Q9UI30-2 partner): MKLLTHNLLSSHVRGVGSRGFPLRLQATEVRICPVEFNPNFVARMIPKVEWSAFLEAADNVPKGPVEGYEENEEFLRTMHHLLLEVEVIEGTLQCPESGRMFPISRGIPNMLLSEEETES
Experimental: For the compounds from entry 155 on in Table 1, the following procedure was used to determine IC50 values: The assay was carried out in white, opaque 384-well OptiPlates (PerkinElmer). For IC50 determination, a 2.5x substrate mix (final assay concentrations: 5 μM ETF1, 1 μM SAM and 1x MTaseGlo Reagent), a 2.5x KMT9 solution (final assay concentration 100 nM) and a 5x inhibitor stock 1:1 dilution series (concentration according to the desired range; dilution series was prepared in assay buffer containing 10% DMSO to obtain a final DMSO concentration of 2% in the assay) were prepared. 2 μL of 5x inhibitor stock and 4 μL of 2.5x KMT9 were pipetted, the plate was spun down at 700 rpm for 1 min using a Hettich UNIVERSAL 320 centrifuge and incubated at room temperature (around 25° C.) for 15 min. The reaction was initiated by adding 4 μL of 2.5x substrate mix, the plate was spun down as described before and incubated at 30° C. for 2 h. Afterwards, 10 μL of 2× MTaseGlo Detection solution was added, the plate was centrifuged as described above and incubated for 60 min at room temperature. Luminescence was measured using a PerkinElmer EnVision 2102 Multilabel Reader. Calculation of inhibition and data fitting was carried out as for entries 1-154. described above.
For the results of the methyltransferase inhibition assay shown as “Inhibition” in Table 1, “I” represents an IC50 less than 0.1 μM, “II” represents an IC50 equal or higher than 0.1 μM and less than 1 μM, “III” represents an IC50 equal or higher than 1 µM and less than 10 µM and “IV” represents an IC50 equal or higher than 10 µM

KMT9 [2] = biological target: T1, KMT9; test: Microscale thermophoresis (MST) KMT9 binding
How it was run: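 His-tagged KMT9 (20 nM), RED-Tris-NTA labelled, titrated with varying compound concentrations in 25 mM HEPES pH 7.5, 100 mM NaCl, 1 mM DTT, 0.05% Tween. MST at 40% MST and 100% LED power, Nano-RED excitation; Kd binned A ≤10 nM, B 10–100, C 100–1000, D >1000 nM.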

KMT9 [3] = biological target: T1, KMT9; test: KMT9 thermal shift assay (SyproOrange); type: binding
How it was run: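 Recombinant KMT9 was incubated with compound and SyproOrange at 25° C in 50 mM BTP pH 8.5, 1 mM MgCl2, 1 mM DTT. It was then heated from 20° C to 95° C at 1° C per 15 s with fluorescence read each step. Tm came from a Boltzmann sigmoidal fit; ΔTm relative to DMSO control, binned in 5 K ranges.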

[4] = MTaseGlo procedure (entries from 155), read-out: Inhibition (IC50)
[5] = His-tag labelled KMT9 20 nM, read-out: MST (Kd)
[6] = 500 µM compound, 2 μM KMT9, read-out: Thermal shift (ΔTm)
[7] = from entry 155: MTaseGlo assay, read-out: Inhibition
[8] = microscale thermophoresis, His-tag labelled KMT9 (20 nM), read-out: MST
[9] = ΔTm, 500 µM compound, 2 μM KMT9, 5X SO, read-out: Thermal shift
[10] = IC50 class, MTaseGlo procedure (entries from 155 on), read-out: Inhibition
[11] = His-tag labelled KMT9 20 nM, Kd class, read-out: MST
[12] = ΔTm class, 500 uM compound, 2 μM KMT9, read-out: Thermal shift

Compound | IC50 (KMT9 [1]; [4]) [µM] | Kd (KMT9 [2]; [5]) [µM] | ΔTm at 500 µM (KMT9 [3]; [6]) [°C] | IC50 (KMT9 [1]; [7]) [µM] | Kd (KMT9 [2]; [8]) [µM] | ΔTm at 500 µM (KMT9 [3]; [9]) [°C] | other results
CNc1nc(Cl)nc2c1ccn2[C@@H]1C[C@H](CNCCCNCCc2cccc(Oc3ccccc3)c2)[C@@H](O)[C@H]1O [Compound 555, (1R,2S,3R,5R)-3-(2-chloro-4-(methylamino)-7H-pyrrolo[2,3-d]pyrimidin-7-yl)-5-(((3-((3-phenoxyphenethyl)amino)propyl)amino)methyl)cyclopentane-1,2-diol] | 0.1 to 1 | 0.01 to 0.1 | 15 to 20 | – | – | – | –
Nc1nc(Cl)nc2c1c(-c1ccn(Cc3ccccc3)n1)cn2[C@@H]1C[C@H](C2CCNCC2)[C@@H](O)[C@H]1O [Compound 501, (1R,2S,3R,5R)-3-(4-Amino-5-(1-benzyl-1H-pyrazol-3-yl)-2-chloro-7H-pyrrolo[2,3-d]pyrimidin-7-yl)-5-(piperidin-4-yl)cyclopentane-1,2-diol] | – | – | – | < 0.1 | ≤ 0.01 | > 20 | –
COc1cccc([C@H]2C[C@@H](n3ccc4c(N)nc(Cl)nc43)[C@H](O)[C@@H]2O)c1 [Compound 670, (1R,2S,3R,5R)-3-{4-amino-2-chloropyrrolo[2,3-d]pyrimidin-7-yl}-5-(3-methoxyphenyl)cyclopentane-1,2-diol] | 0.1 to 1 | ≤ 0.01 | 10 to 15 | – | – | – | –
CS(=O)(=O)n1ccc(-c2cn([C@@H]3C[C@H](CNCCCNCCc4ccccc4)[C@@H](O)[C@H]3O)c3ncncc23)n1 [Compound 640, (1R,2S,3R,5R)-3-(5-(1-(Methylsulfonyl)-1H-pyrazol-3-yl)-7H-pyrrolo[2,3-d]pyrimidin-7-yl)-5-(((3-(phenethylamino)propyl)amino)methyl)cyclopentane-1,2-diol] | – | – | – | 1 to 10 | > 1 | 10 to 15 | –
O[C@@H]1[C@H](O)[C@@H](C2=CCCN(CC(F)(F)F)C2)C[C@H]1n1cc(-c2nc(Cc3ccccc3)cs2)c2cnc(Cl)nc21 [Compound 651, (1R,2S,3R,5R)-3-[5-(4-Benzyl-1,3-thiazol-2-yl)-2-chloropyrrolo[2,3-d]pyrimidin-7-yl]-5-[1-(2,2,2-trifluoroethyl)-5,6-dihydro-2H-pyridin-3-yl]cyclopentane-1,2-diol] | – | – | – | – | – | – | IC50 (KMT9 [1]; [10]): > 10 µM; Kd (KMT9 [2]; [11]): > 1 µM; ΔTm at 500 µM (KMT9 [3]; [12]): ≤ 10 °C
Nc1ncnc2c1c(-c1nccs1)cn2[C@@H]1C[C@H](c2cc(Cl)cc(Cl)c2)[C@@H](O)[C@H]1O [Compound 394, (1R,2S,3R,5R)-3-(4-amino-5-(thiazol-2-yl)-7H-pyrrolo[2,3-d]pyrimidin-7-yl)-5-(3,5-dichlorophenyl) cyclo-pentane-1,2-diol] | – | – | – | > 10 | > 1 | ≤ 10 | –
CN(CCCNCCc1ccc(F)cc1)C[C@H]1C[C@@H](n2cc(-c3ccn(Cc4ccccc4)n3)c3cnc(Cl)nc32)[C@H](O)[C@@H]1O [Compound 642, (1R,2S,3R,5R)-3-[5-(1-Benzylpyrazol-3-yl)-2-chloropyrrolo[2,3-d]pyrimidin-7-yl]-5-{[(3-{[2-(4-fluorophenyl)ethyl]amino}propyl)(methyl)amino]methyl}cyclopentane-1,2-diol] | – | – | – | – | – | – | IC50 (KMT9 [1]; [10]): 1 to 10 µM; Kd (KMT9 [2]; [11]): 0.01 to 0.1 µM; ΔTm at 500 µM (KMT9 [3]; [12]): 15 to 20 °C
Cn1cc([C@H]2C[C@@H](n3ccc4c(N)nc(Cl)nc43)[C@H](O)[C@@H]2O)cn1 [Compound 661, (1R,2S,3R,5R)-3-(4-Amino-2-chloro-7H-pyrrolo[2,3-d]pyrimidin-7-yl)-5-(1-methyl-1H-pyrazol-4-yl)cyclopentane-1,2-diol] | 1 to 10 | 0.1 to 1 | ≤ 10 | – | – | – | –
Nc1ncnc2c1ccn2[C@@H]1C[C@H](c2ccc3ccccc3c2)[C@@H](O)[C@H]1O [Compound 387, (1R,2S,3R,5R)-3-(4-amino-7H-pyrrolo[2,3-d]pyrimidin-7-yl)-5-(naphthalen-2-yl) cyclopentane-1,2-diol] | – | – | – | > 10 | > 1 | ≤ 10 | –
COc1cc([C@H]2C[C@@H](n3cc(Br)c4c(N)nc(Cl)nc43)[C@H](O)[C@@H]2O)ccn1 [Compound 680, (1R,2S,3R,5R)-3-(4-amino-5-bromo-2-chloro-7H-pyrrolo[2,3-d]pyrimidin-7-yl)-5-(2-methoxypyridin-4-yl)cyclopentane-1,2-diol] | 0.1 to 1 | 0.01 to 0.1 | 10 to 15 | – | – | – | –
Nc1ncnc2c1c(-c1nc(Cc3ccccc3)cs1)cn2[C@@H]1C[C@H]([C@H]2CCCNC2)[C@@H](O)[C@H]1O (single isomer, unassigned) [Compound 593S] | – | – | – | 1 to 10 | 0.1 to 1 | 10 to 15 | –
Nc1ncnc2c1ccn2[C@@H]1C[C@H](c2cccc(Cl)c2)[C@@H](O)[C@H]1O [Compound 407, (1R,2S,3R,5R)-3-(4-amino-7H-pyrrolo[2,3-d]pyrimidin-7-yl)-5-(3-chlorophenyl) cyclopentane-1,2-diol] | > 10 | > 1 | ≤ 10 | – | – | – | –
O[C@@H]1[C@H](O)[C@@H](C2CCN(CC(F)(F)F)CC2)C[C@H]1n1cc(-c2nc(Cc3ccccc3)cs2)c2cnc(Cl)nc21 [Compound 499, (1R,2S,3R,5R)-3-(5-(4-Benzylthiazol-2-yl)-2-chloro-7H-pyrrolo[2,3-d]pyrimidin-7-yl)-5-(1-(2,2,2-trifluoroethyl)piperidin-4-yl)cyclopentane-1,2-diol] | – | – | – | – | – | – | IC50 (KMT9 [1]; [10]): > 10 µM; Kd (KMT9 [2]; [11]): > 1 µM; ΔTm at 500 µM (KMT9 [3]; [12]): ≤ 10 °C
O[C@@H]1[C@@H](CN(CCCNCCc2ccccc2)c2cn[nH]c2)C[C@@H](n2cc(-c3cccs3)c3cncnc32)[C@@H]1O [Compound 616] | – | – | – | 1 to 10 | 0.01 to 0.1 | 10 to 15 | –
CCN(CCCNCCc1ccc(F)cc1)C[C@H]1C[C@@H](n2cc(-c3ccccc3)c3c(N)nc(Cl)nc32)[C@H](O)[C@@H]1O [Compound 568, (1R,2S,3R,5R)-3-(4-amino-2-chloro-5-phenyl-7//-pyrrolo[2,3-d]pyrimidin-7-yl)-5-((ethyl(3-((4-fluorophenethyl)amino)propyl)amino)methyl)cyclopentane-1,2-diol] | – | – | – | – | – | – | IC50 (KMT9 [1]; [10]): 0.1 to 1 µM; Kd (KMT9 [2]; [11]): 0.01 to 0.1 µM; ΔTm at 500 µM (KMT9 [3]; [12]): > 20 °C
Nc1nc(Cl)nc2c1c(-c1nc(Cc3ccccc3)cs1)cn2[C@@H]1C[C@H](C2CCN(Cc3ccn[nH]3)CC2)[C@@H](O)[C@H]1O [Compound 524, (1R,2S,3R,5R)-3-[4-amino-5-(4-benzyl-1,3-thiazol-2-yl)-2-chloropyrrolo[2,3-d]pyrimidin-7-yl]-5-[1-(2H-pyrazol-3-ylmethyl)piperidin-4-yl]cyclopentane-1,2-diol] | 0.1 to 1 | 0.01 to 0.1 | 15 to 20 | – | – | – | –
Nc1cccc([C@H]2C[C@@H](n3ccc4c(N)ncnc43)[C@H](O)[C@@H]2O)c1 [Compound 410, (1R,2S,3R,5R)-3-(4-amino-7H-pyrrolo[2,3-d]pyrimidin-7-yl)-5-(3-aminophenyl) cyclopentane-1,2-diol] | > 10 | > 1 | ≤ 10 | – | – | – | –
